Test results published in EP3753932A1, “SUBSTITUTED BICYCLIC DERIVATIVES HAVING MULTIMODAL ACTIVITY AGAINST PAIN” (priority 2019, dated 2020).
Like-named read-outs stand apart in the source and are kept apart here.

What was measured:
[1] = target: Human α2δ-1 subunit of Cav2.2 calcium channel (Homo sapiens, UniProt P54289); assay: Human α2δ-1 subunit of Cav2.2 calcium channel assay ([3H]-Gabapentin binding)
Method: Human α2δ-1 subunit of Cav2.2 calcium channel assay
Human α2δ-1 enriched membranes (2.5 µg) were incubated with 15 nM of radiolabeled [3H]-Gabapentin in assay buffer containing Hepes-KOH 10mM, pH 7.4. NSB (non specific binding) was measured by adding 10 µM pregabalin. The binding of the test compound was measured at either one concentration (% inhibition at 1 or 10 µM) or five different concentrations to determine affinity values (Ki). After 60 min incubation at 27 °C, binding reaction was terminated by filtering through Multiscreen GF/C (Millipore) presoaked in 0.5 % polyethyleneimine in Vacuum Manifold Station, followed by 3 washes with ice-cold filtration buffer containing 50 mM Tris-HCl, pH 7.4. Filter plates were dried at 60 °C for 1 hour and 30 µl of scintillation cocktail were added to each well before radioactivity reading. Readings were performed in a Trilux 1450 Microbeta radioactive counter (Perkin Elmer).

[2] = target: T1, Human µ-opioid receptor (Homo sapiens, UniProt P35372); assay: Human µ-opioid receptor radioligand assay ([3H]-DAMGO); assay type: binding
T1 construct: expressed in transfected cells; host or cells: CHO-K1
T1 sequence (P35372 whole entry): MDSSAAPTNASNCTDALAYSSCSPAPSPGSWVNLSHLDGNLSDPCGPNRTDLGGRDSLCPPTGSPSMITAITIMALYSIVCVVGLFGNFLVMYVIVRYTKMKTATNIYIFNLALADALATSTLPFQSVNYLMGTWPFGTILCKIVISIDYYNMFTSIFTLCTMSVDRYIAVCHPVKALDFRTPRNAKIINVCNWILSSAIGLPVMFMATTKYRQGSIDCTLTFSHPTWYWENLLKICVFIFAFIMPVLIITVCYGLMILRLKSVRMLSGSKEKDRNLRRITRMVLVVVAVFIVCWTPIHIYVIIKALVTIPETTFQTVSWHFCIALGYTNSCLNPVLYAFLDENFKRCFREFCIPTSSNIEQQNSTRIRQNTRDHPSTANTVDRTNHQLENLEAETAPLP
Method: Human µ-opioid receptor radioligand assay
Transfected CHO-K1 cell membranes (20 µg) were incubated with [^3H]-DAMGO (1 nM) in assay buffer containing Tris-HCl 50 mM, MgCl2 5 mM at pH 7.4. NBS (non-specific binding) was measured by adding 10 µM Naloxone. The binding of the test compound was measured at either one concentration (% inhibition at 1 or 10 µM) or five different concentrations to determine affinity values (Ki). Plates were incubated at 27 °C for 60 min. After the incubation period, the reaction mixture was then transferred to MultiScreen HTS, FC plates (Millipore), filtered and plates were washed 3 times with ice-cold 10 mM Tris-HCl (pH 7.4). Filters were dried and counted at approximately 40% efficiency in a MicroBeta scintillation counter (Perkin-Elmer) using EcoScint liquid scintillation cocktail.

[3] = transfected CHO-K1 cell membranes, [3H]-DAMGO 1 nM, read-out: µ-binding
[4] = human α2δ-1 enriched membranes, [3H]-Gabapentin 15 nM, read-out: α2δ-1 binding

Sequence of Human α2δ-1 subunit of Cav2.2 calcium channel (P54289 25-1103): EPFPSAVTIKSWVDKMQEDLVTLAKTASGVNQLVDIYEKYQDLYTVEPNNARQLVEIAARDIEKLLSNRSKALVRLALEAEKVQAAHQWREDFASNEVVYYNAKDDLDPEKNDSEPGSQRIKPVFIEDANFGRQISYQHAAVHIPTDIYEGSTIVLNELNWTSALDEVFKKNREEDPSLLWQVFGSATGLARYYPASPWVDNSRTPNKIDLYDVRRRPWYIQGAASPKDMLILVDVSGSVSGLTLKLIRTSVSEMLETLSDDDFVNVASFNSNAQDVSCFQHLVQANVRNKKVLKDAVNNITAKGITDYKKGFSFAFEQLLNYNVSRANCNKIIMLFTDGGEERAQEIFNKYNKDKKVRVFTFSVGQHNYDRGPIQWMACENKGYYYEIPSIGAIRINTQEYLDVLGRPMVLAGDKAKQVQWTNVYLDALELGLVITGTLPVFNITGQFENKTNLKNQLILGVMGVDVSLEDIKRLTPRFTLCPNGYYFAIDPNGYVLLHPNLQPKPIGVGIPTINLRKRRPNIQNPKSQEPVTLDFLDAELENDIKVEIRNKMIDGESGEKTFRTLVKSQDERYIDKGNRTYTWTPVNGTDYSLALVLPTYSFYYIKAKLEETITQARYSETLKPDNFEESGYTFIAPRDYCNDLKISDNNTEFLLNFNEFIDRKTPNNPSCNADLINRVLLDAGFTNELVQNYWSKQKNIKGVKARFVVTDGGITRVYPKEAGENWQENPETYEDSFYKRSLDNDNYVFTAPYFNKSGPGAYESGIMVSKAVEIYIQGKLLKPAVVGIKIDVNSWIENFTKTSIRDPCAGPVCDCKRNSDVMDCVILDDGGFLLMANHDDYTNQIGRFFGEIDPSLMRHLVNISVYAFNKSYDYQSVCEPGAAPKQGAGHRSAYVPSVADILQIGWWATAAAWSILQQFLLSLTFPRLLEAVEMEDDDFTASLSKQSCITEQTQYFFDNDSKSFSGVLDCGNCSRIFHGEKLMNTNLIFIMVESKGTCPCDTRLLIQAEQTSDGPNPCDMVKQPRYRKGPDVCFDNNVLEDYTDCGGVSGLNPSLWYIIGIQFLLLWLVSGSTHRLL

For `CCCC(c1ccc2cc(N3CCC(c4cccc(O)c4)(N(C)C)CC3)ccc2c1)N1C[C@@H](C)N[C@@H](C)C1` (stereo partly drawn) [Example 1, 3-(4-(Dimethylamino)-1-(6-(1-((3S,5R)-3,5-dimethylpiperazin-1-yl)butyl)naphthalen-2-yl)piperidin-4-yl)phenol], the Ki [1] was > 5000 nM and the Ki [2, 3] was < 100 nM.

In the case of `CCCC(c1cnc2cc(N3CCC(c4cccc(O)c4)(N(C)C)CC3)ccc2c1)N1C[C@@H](C)N[C@@H](C)C1` (stereo partly drawn) [Example 2, 3-(4-(Dimethylamino)-1-(3-(1-((3S,5R)-3,5-dimethylpiperazin-1-yl)butyl)quinolin-7-yl)piperidin-4-yl)phenol], the Ki [1, 4] is reported as 500 to 5000 nM and the Ki [2] is reported as < 100 nM.

With `CCCC(c1ccc2cc(N3CCC(c4cccc(O)c4)(N(C)C)CC3)ccc2n1)N1C[C@@H](C)N[C@@H](C)C1` (stereo partly drawn) [Example 3, 3-(4-(Dimethylamino)-1-(2-(1-((3S,5R)-3,5-dimethylpiperazin-1-yl)butyl)quinolin-6-yl)piperidin-4-yl)phenol] the Ki [1, 4] was 500 to 5000 nM and the Ki [2] was < 100 nM.

With `CCC[C@H](c1cnc2cc(N3CCC(c4cccc(O)c4)(N(C)C)CC3)ccc2c1)N1C[C@@H](C)N[C@@H](C)C1` [Example 4, 3-(4-(Dimethylamino)-1-(3-((R)-1-((3S,5R)-3,5-dimethylpiperazin-1-yl)butyl)quinolin-7-yl)piperidin-4-yl)phenol] the Ki [1, 4] was 500 to 5000 nM and the Ki [2] was < 100 nM.

With `CCC[C@@H](c1cnc2cc(N3CCC(c4cccc(O)c4)(N(C)C)CC3)ccc2c1)N1C[C@@H](C)N[C@@H](C)C1` [Example 5, 3-(4-(Dimethylamino)-1-(3-((S)-1-((3S,5R)-3,5-dimethylpiperazin-1-yl)butyl)quinolin-7-yl)piperidin-4-yl)phenol] the Ki [1, 4] was > 5000 nM and the Ki [2] was < 100 nM.

For `CCCC(c1cnc2cc(CN3CCC(c4cccc(O)c4)(N(C)C)CC3)ccc2c1)N1C[C@@H](C)N[C@@H](C)C1` (stereo partly drawn) [Example 6, 3-(4-(Dimethylamino)-1-((3-(1-((3S,5R)-3,5-dimethylpiperazin-1-yl)butyl)quinolin-7-yl)methyl)piperidin-4-yl)phenol], the Ki [1] was < 500 nM and the Ki [2, 3] was < 100 nM.

`CCCC(c1ccc2cc(CN3CCC(c4cccc(O)c4)(N(C)C)CC3)ccc2n1)N1C[C@@H](C)N[C@@H](C)C1` (stereo partly drawn) [Example 7, 3-(4-(Dimethylamino)-1-((2-(1-((3S,5R)-3,5-dimethylpiperazin-1-yl)butyl)quinolin-6-yl)methyl)piperidin-4-yl)phenol] was tested, and the Ki [1] was < 500 nM and the Ki [2, 3] was < 100 nM.

`CCC[C@H](c1cnc2cc(CN3CCC(c4cccc(O)c4)(N(C)C)CC3)ccc2c1)N1C[C@@H](C)N[C@@H](C)C1` [Example 8, 3-(4-(Dimethylamino)-1-((3-((R)-1-((3S,5R)-3,5-dimethylpiperazin-1-yl)butyl)quinolin-7-yl)methyl)piperidin-4-yl)phenol] was tested, and the Ki [1] was < 500 nM and the Ki [2, 3] was < 100 nM.

In the case of `CCC[C@@H](c1cnc2cc(CN3CCC(c4cccc(O)c4)(N(C)C)CC3)ccc2c1)N1C[C@@H](C)N[C@@H](C)C1` [Example 9, 3-(4-(Dimethylamino)-1-((3-((S)-1-((3S,5R)-3,5-dimethylpiperazin-1-yl)butyl)quinolin-7-yl)methyl)piperidin-4-yl)phenol], the Ki [1, 4] is reported as 500 to 5000 nM and the Ki [2] is reported as < 100 nM.

In the case of `CCC[C@H](c1ccc2cc(CN3CCC(c4cccc(O)c4)(N(C)C)CC3)ccc2n1)N1C[C@@H](C)N[C@@H](C)C1` [Example 10, 3-(4-(Dimethylamino)-1-((2-((R)-1-((3S,5R)-3,5-dimethylpiperazin-1-yl)butyl)quinolin-6-yl)methyl)piperidin-4-yl)phenol], the Ki [1] is reported as < 500 nM and the Ki [2, 3] is reported as < 100 nM.

`CCC[C@@H](c1ccc2cc(CN3CCC(c4cccc(O)c4)(N(C)C)CC3)ccc2n1)N1C[C@@H](C)N[C@@H](C)C1` [Example 11, 3-(4-(Dimethylamino)-1-((2-((S)-1-((3S,5R)-3,5-dimethylpiperazin-1-yl)butyl)quinolin-6-yl)methyl)piperidin-4-yl)phenol] was tested, and the Ki [1, 4] was 500 to 5000 nM and the Ki [2] was < 100 nM.

`CCC[C@H](c1cnc2cc(CN3CCC(c4ccccc4)(N(C)C)CC3)ccc2c1)N1C[C@@H](C)N[C@@H](C)C1` [Example 12, 1-((3-((R)-1-((3S,5R)-3,5-Dimethylpiperazin-1-yl)butyl)quinolin-7-yl)methyl)-N,N-dimethyl-4-phenylpiperidin-4-amine] was tested, and the Ki [1] was < 500 nM and the Ki [2, 3] was 100 to 500 nM.

`CCC[C@@H](c1cnc2cc(CN3CCC(c4ccccc4)(N(C)C)CC3)ccc2c1)N1C[C@@H](C)N[C@@H](C)C1` [Example 13, 1-((3-((S)-1-((3S,5R)-3,5-Dimethylpiperazin-1-yl)butyl)quinolin-7-yl)methyl)-N,N-dimethyl-4-phenylpiperidin-4-amine] was tested, and the Ki [1, 4] was > 5000 nM and the Ki [2] was 100 to 500 nM.

With `CCCC(c1cnc2ccc(N3CCC(c4cccc(O)c4)(N(C)C)CC3)cc2c1)N1C[C@@H](C)N[C@@H](C)C1` (stereo partly drawn) [Example 14, 3-(4-(Dimethylamino)-1-(3-(1-((3S,5R)-3,5-dimethylpiperazin-1-yl)butyl)quinolin-6-yl)piperidin-4-yl)phenol] the Ki [1] was < 500 nM and the Ki [2, 3] was > 500 nM.

In the case of `CCCC(c1cnc2ccc(CN3CCC(c4cccc(O)c4)(N(C)C)CC3)cc2c1)N1C[C@@H](C)N[C@@H](C)C1` (stereo partly drawn) [Example 15, 3-(4-(Dimethylamino)-1-((3-(1-((3S,5R)-3,5-dimethylpiperazin-1-yl)butyl)quinolin-6-yl)methyl)piperidin-4-yl)phenol], the Ki [1] is reported as < 500 nM and the Ki [2, 3] is reported as < 100 nM.

For `CCC[C@H](c1cnc2ccc(CN3CCC(c4cccc(O)c4)(N(C)C)CC3)cc2c1)N1C[C@@H](C)N[C@@H](C)C1` [Example 16, 3-(4-(Dimethylamino)-1-((3-((R)-1-((3S,5R)-3,5-dimethylpiperazin-1-yl)butyl)quinolin-6-yl)methyl)piperidin-4-yl)phenol], the Ki [1] was < 500 nM and the Ki [2, 3] was < 100 nM.

For `CCC[C@@H](c1cnc2ccc(CN3CCC(c4cccc(O)c4)(N(C)C)CC3)cc2c1)N1C[C@@H](C)N[C@@H](C)C1` [Example 17, 3-(4-(Dimethylamino)-1-((3-((S)-1-((3S,5R)-3,5-dimethylpiperazin-1-yl)butyl)quinolin-6-yl)methyl)piperidin-4-yl)phenol], the Ki [1, 4] was > 5000 nM and the Ki [2] was < 100 nM.

Work on `CCC[C@H](c1cnc2ccc(CN3CCC(c4ccccc4)(N(C)C)CC3)cc2c1)N1C[C@@H](C)N[C@@H](C)C1` [Example 18, 1-((3-((R)-1-((3S,5R)-3,5-Dimethylpiperazin-1-yl)butyl)quinolin-6-yl)methyl)-N,N-dimethyl-4-phenylpiperidin-4-amine] yielded a Ki [1, 4] of 500 to 5000 nM and a Ki [2] of 100 to 500 nM.

For `CCC[C@@H](c1cnc2ccc(CN3CCC(c4ccccc4)(N(C)C)CC3)cc2c1)N1C[C@@H](C)N[C@@H](C)C1` [Example 19, 1-((3-((S)-1-((3S,5R)-3,5-Dimethylpiperazin-1-yl)butyl)quinolin-6-yl)methyl)-N,N-dimethyl-4-phenylpiperidin-4-amine], the Ki [1, 4] was > 5000 nM and the Ki [2] was < 100 nM.

For `CCCC(c1cc2ccc(N3CCC(c4cccc(O)c4)(N(C)C)CC3)cc2nc1CC)N1C[C@@H](C)N[C@@H](C)C1` (stereo partly drawn) [Example 20, 3-(4-(Dimethylamino)-1-(3-(1-((3S,5R)-3,5-dimethylpiperazin-1-yl)butyl)-2-ethylquinolin-7-yl)piperidin-4-yl)phenol], the Ki [1] was < 500 nM and the Ki [2, 3] was < 100 nM.

For `CCCC(c1cc2ccc(CN3CCC(c4cccc(O)c4)(N(C)C)CC3)cc2nc1CC)N1C[C@@H](C)N[C@@H](C)C1` (stereo partly drawn) [Example 21, 3-(4-(Dimethylamino)-1-((3-(1-((3S,5R)-3,5-dimethylpiperazin-1-yl)butyl)-2-ethylquinolin-7-yl)methyl)piperidin-4-yl)phenol], the Ki [1] was < 500 nM and the Ki [2, 3] was < 100 nM.

With `CCCC(c1cc2cc(CN3CCC(c4cccc(O)c4)(N(C)C)CC3)ccc2nc1CC)N1C[C@@H](C)N[C@@H](C)C1` (stereo partly drawn) [Example 22, 3-(4-(Dimethylamino)-1-((3-(1-((3S,5R)-3,5-dimethylpiperazin-1-yl)butyl)-2-ethylquinolin-6-yl)methyl)piperidin-4-yl)phenol] the Ki [1, 4] was 500 to 5000 nM and the Ki [2] was < 100 nM.

`CCC[C@H](c1cc2ccc(CN3CCC(c4cccc(O)c4)(N(C)C)CC3)cc2nc1CC)N1C[C@@H](C)N[C@@H](C)C1` [Example 23, 3-(4-(Dimethylamino)-1-((3-((R)-1-((3S,5R)-3,5-dimethylpiperazin-1-yl)butyl)-2-ethylquinolin-7-yl)methyl)piperidin-4-yl)phenol] was tested, and the Ki [1] was < 500 nM and the Ki [2, 3] was < 100 nM.

With `CCC[C@@H](c1cc2ccc(CN3CCC(c4cccc(O)c4)(N(C)C)CC3)cc2nc1CC)N1C[C@@H](C)N[C@@H](C)C1` [Example 24, 3-(4-(Dimethylamino)-1-((3-((S)-1-((3S,5R)-3,5-dimethylpiperazin-1-yl)butyl)-2-ethylquinolin-7-yl)methyl)piperidin-4-yl)phenol] the Ki [1, 4] was 500 to 5000 nM and the Ki [2] was < 100 nM.
